Source: patent US20250313900A1, “COMPOSITIONS AND THERAPEUTIC AGENTS FOR MODULATING INFLAMMATORY RESPONSES ON BOTH TUMOR AND IMMUNE CELLS” (THE METHODIST HOSPITAL, priority 2022, published 2025)
Like-named read-outs stand apart in the source and are kept apart here.

Key:
vinculin = test: Western blots of vinculin expression, 4T1 tumor model; assay type: cell-based; settings: CMTM4 knockout, 1 mm, 0, 3, 6 and 24 hours
Description: 1 mm of C10H14O3 (4-Ethoxy-3-methoxybenzyl alcohol)(28A), C9H16N2O6 (Tetrahydrouridine)(28B), or C10H14O3 (5-tert-butyl-2-methyl-3-furoic acid)(28C) was administered to control mice or CMTM4 knockouts and expression measured after 0, 3, 6, and 24 hours.

p-Akt/p-mTOR = p-Akt/p-mTOR (compound screening); assay type: cell-based
Description: (§1) Protein samples from cells were separated on sodium dodecyl sulfate (SDS)-polyacrylamide gels and transferred to PVDF membranes. The membranes were blocked in 4% skim milk solution, incubated with the appropriate antibody, and subsequently incubated with a secondary antibody conjugated with horseradish peroxidase. The antibodies for p-NF-κBp65, NF-κBp65. EGFR, PTEN, Akt, p-Akt, mTOR, p-mTOR, S6, p-S6, Rab4, Rab5a, Rab11, Tubulin, actin, vinculin, and CMTM4 were purchased from Cell Signaling Technology, Inc. (Beverly, MA) and the antibody for Rab21 was purchased from Santa Cruz Biotechnology. The immunoreactive bands were visualized using the ECL system (Thermo Scientific). Control and CMTM4 KD cell lysates were analyzed using the proteome profiler mouse phospho-receptor tyrosine kinase array kit (R&D Systems) following the manufacturer's instructions. For immunoprecipitation, Dynabeads His-Tag isolation and pulldown kit (Life Technologies) was used. The pull-down samples were subjected to immunoblot assays.

IL-6 = IL-6 production (compound screening); assay type: cell-based
Description: (§2) The initial screening was followed by the following assessments: 1) MHC 11 assay by high-throughput flow cytometry. 2) IL-6 production. 3) NF-kB promoter activity using CMTM4-expressing NF-kB/secreted embryonic alkaline phosphatase (SEAP) reporter stable cell lines using both LLC and 4T1 cells. 4) Inhibition of EGF-mediated G-CSF secretion from tumor cells. 5) Test glycolysis (FIG. 13).

glycolysis = test: Test glycolysis (compound screening); assay type: cell-based
Description: as §2

CMTM4 [1] = molecular target: T1, CMTM4 (Mus musculus, UniProt Q8CJ61); test: CMTM4 level (compound screening); assay type: cell-based
T1 construct: endogenous in cells; LLC and 4T1 are the only lines named in the screen
T1 sequence (Q8CJ61 whole entry): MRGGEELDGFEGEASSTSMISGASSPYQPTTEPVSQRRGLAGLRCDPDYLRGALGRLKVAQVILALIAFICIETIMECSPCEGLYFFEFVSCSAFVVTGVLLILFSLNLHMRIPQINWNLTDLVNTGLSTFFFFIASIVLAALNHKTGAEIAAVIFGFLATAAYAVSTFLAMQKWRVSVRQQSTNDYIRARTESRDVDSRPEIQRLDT
Description: as §1

CMTM4 [2] = test: Western blot of CMTM4 protein in HCC827 CT cells; assay type: cell-based, human; settings: 1 μM
MHC II = MHC II assay by high-throughput flow cytometry (compound screening); assay type: cell-based
Description: as §2

[3] = test system: NF-kB promoter activity in 4T1 cells; test: NF-kB promoter activity, CMTM4-expressing NF-kB/SEAP reporter stable 4T1 cells; assay type: cell-based, murine
Description: as §2

G-CSF = test: Inhibition of EGF-mediated G-CSF secretion from tumor cells; assay type: cell-based
Description: as §2
Secretion of G-CSF was determined using ELISA kits according to the manufacturer's instructions (Life Technologies).

[4] = test system: NF-kB promoter activity in LLC cells; test: NF-kB promoter activity, CMTM4-expressing NF-kB/SEAP reporter stable LLC cells; assay type: cell-based, murine
Description: as §2

EGFR = EGFR levels in LLC CMTM4 KD cells after lipid raft depletion; assay type: cell-based, murine
Description: Flotillin-1 was used as a marker of lipid raft and vinculin was used as a maker of the non-raft fraction. […] FIGS. 8D and 8E show LLC CMTM4 KD cells were treated with MβCD and real-time PCR (8D) and western blot (8E) were performed to determine EGFR levels. *p<0.05. FIG. 8F show 293T cells were transfected with CMTM4 WT-mcherry (upper) or CMTM4 MT-mcherry (lower) with EGFR-EGFP and then, cells were treated with EGF for 1 hour. Representative confocal images are shown. FIG. 8G show RNAseq data showing Rab expression between control and CMTM4 KD LLC cells. FIGS. 8H and 8I show Rab expression in control and CMTM4 KD LLC cells were determined by qRT-PCR (H) and western blot (8I). FIGS. 8J, 8K, and 8L show 293T cells were transfected with CMTM4-EGFP and Rab4 (mCherry), Rab5 (mCherry), or Rab11 (mCherry), and then, cells were treated with EGF for 1 hour. Representative confocal images are shown. Pearson correlation coefficient (PCC) was measured from 20 individual cells. FIGS. 8M and 8N show EGFR-EGFR and Lamp-1 RFP were transfected to LLC control and CMTM4 KD cells. Confocal imaging was taken before (8M) and after (8N) treatment with EGF. Pearson correlation coefficient (PCC) was measured from 20 individual cells. *p<0.05, **p<0.01, ***P<0.001, ****P<0.0001. Scale bar: 3 μm. […]

## CCOc1ccc(CO)cc1OC [4-Ethoxy-3-methoxybenzyl alcohol]
vinculin
  vinculin expression: significantly increased

## Cc1oc(C(C)(C)C)cc1C(=O)O [5-tert-butyl-2-methyl-3-furoic acid]
vinculin
  vinculin expression: significantly increased

## C/C=C/C(=O)O [C4H6O2, CROTONIC ACID, CROTONIC ACID]
p-Akt/p-mTOR
  p-Akt/p-mTOR: Decrease
IL-6
  IL-6 (%): 4.438%
glycolysis
  Glycolysis: Inhibit
CMTM4 [1]
  CMTM4: No difference

## O=C1NC(O)CCN1[C@@H]1O[C@H](CO)[C@@H](O)[C@H]1O (some centres unmarked) [C9H16N2O6, Tetrahydrouridine, Tetrahydrouridine]
vinculin
  vinculin expression: significantly increased
p-Akt/p-mTOR
  p-Akt/p-mTOR: Decrease
CMTM4 [2]
  CMTM4 protein expression: decreased
IL-6
  IL-6 (%): −0.1232%
glycolysis
  Glycolysis: Inhibit
CMTM4 [1]
  CMTM4: No difference

## OC[C@H]1O[C@@H](n2cnc3c(O)ncnc32)[C@H](O)[C@@H]1O [C10H12N4O5, Inosine, Inosine]
CMTM4 [2]
  CMTM4 protein expression: decreased
IL-6
  IL-6 (%): −9.437%
glycolysis
  Glycolysis: Inhibit
CMTM4 [1]
  CMTM4: No difference

## Cc1ccccc1OCC(O)CO (centres unmarked) [C10H14O3, Mephenesin, Mephenesin]
p-Akt/p-mTOR
  p-Akt/p-mTOR: Decrease
IL-6
  IL-6 (%): 0.5625%
glycolysis
  Glycolysis: Inhibit
CMTM4 [1]
  CMTM4: No difference

## N#Cc1cn([C@@H]2O[C@H](CO)[C@@H](O)[C@H]2O)c2ncnc(N)c12 [C12H13N5O4, Toyocamycin, Toyocamycin]
p-Akt/p-mTOR
  p-Akt/p-mTOR: Decrease
IL-6
  IL-6 (%): −3.717%
glycolysis
  Glycolysis: Inhibit
CMTM4 [1]
  CMTM4: No difference

## C[C@H]1O[C@H](O[C@H]2[C@H](O)[C@@H](O)[C@@H](O)[C@H](O)[C@@H]2O)[C@@H](N)C[C@@H]1NC(=N)C(=O)O [C14H25N3O9, Kasugamycin, Kasugamycin]
p-Akt/p-mTOR
  p-Akt/p-mTOR: Decrease
MHC II
  MHC II (%): 483.4%
[3]
  NF-kB (%)-4T1: 44.19%
G-CSF
  G-CSF (%): 66.41%
IL-6
  IL-6 (%): 1.934%
glycolysis
  Glycolysis: Inhibit
[4]
  NF-kB (%)-LLC: 46.83%
CMTM4 [1]
  CMTM4: No difference

## COc1cc(-c2oc3cc(O)cc(O)c3c(=O)c2O)ccc1O [C16H12O7, Isorhamnctin, Isorhamnetin]
p-Akt/p-mTOR
  p-Akt/p-mTOR: Decrease
IL-6
  IL-6 (%): −11.581%
glycolysis
  Glycolysis: Inhibit
CMTM4 [1]
  CMTM4: No difference

## COc1cc(O)c2c(=O)c(O)c(-c3ccc(O)c(O)c3)oc2c1 [C16H12O7, Rhamnetin, Rhamnetin]
p-Akt/p-mTOR
  p-Akt/p-mTOR: Decrease
IL-6
  IL-6 (%): −5.243%
glycolysis
  Glycolysis: Inhibit
CMTM4 [1]
  CMTM4: No difference

## CO[C@H]1Nc2c(ccc(C)c2O)C(=O)N2C=C(/C=C/C(N)=O)C[C@@H]12 [C17H19N3O4, Anthramycin methyl ether, Anthramycin methyl ether]
p-Akt/p-mTOR
  p-Akt/p-mTOR: Decrease
IL-6
  IL-6 (%): −1.982%
glycolysis
  Glycolysis: Inhibit
CMTM4 [1]
  CMTM4: No difference

## O=C(/C=C/c1ccc(O)c(O)c1)O[C@H](Cc1ccc(O)c(O)c1)C(=O)O [C18H16O8, Rosmarinic Acid, Rosmarinic Acid]
p-Akt/p-mTOR
  p-Akt/p-mTOR: Decrease
IL-6
  IL-6 (%): −0.1232%
glycolysis
  Glycolysis: Inhibit
CMTM4 [1]
  CMTM4: No difference

## CCc1cccc2c1c(O)c(C(=O)N(CC)c1ccccc1)c(=O)n2C [C21H22N2O3, Paquinimod, Paquinimod]
p-Akt/p-mTOR
  p-Akt/p-mTOR: Decrease
MHC II
  MHC II (%): 520.6%
[3]; 4T1 reporter cells
  NF-kB (%)-4T1: 46.87%
G-CSF; EGF-mediated secretion
  G-CSF (%): 3.464%
IL-6
  IL-6 (%): −0.809%
glycolysis
  Glycolysis: Inhibit
[4]; LLC reporter cells
  NF-kB (%)-LLC: 32.6%
CMTM4 [1]
  CMTM4: No difference

## CC[C@]12CCCN3CCc4c(n(c5ccccc45)[C@@](O)(C(=O)OC)C1)[C@@H]32 [C21H26N2O3, Vincamine, Vincamine]
p-Akt/p-mTOR
  p-Akt/p-mTOR: No difference
IL-6
  IL-6 (%): 5.815%
glycolysis
  Glycolysis: Inhibit
CMTM4 [1]
  CMTM4: Decrease

## CCCCC1CCCCCCc2[nH]c(/C=C3\N=C(c4ccc[nH]4)C=C3OC)cc21.Cl (centres unmarked) [C25H33N3O•ClH, Butylcycloheptylprodiginine Hydrochloride]
MHC II
  MHC II (%): 426.2%
[3]; 4T1 reporter cells
  NF-kB (%)-4T1: 45.8%
G-CSF; EGF-mediated secretion
  G-CSF (%): 4.236%
IL-6
  IL-6 (%): −6.005%
glycolysis
  Glycolysis: Inhibit
[4]; LLC reporter cells
  NF-kB (%)-LLC: 53.61%
CMTM4 [1]
  CMTM4: Decrease

## C[C@@H]1C[C@@H]2CCCC(O)=C2C(=O)O1 [Compound C10H14O3, Ramulosin]
p-Akt/p-mTOR
  p-Akt/p-mTOR: Decrease
MHC II
  MHC II (%): 340.5%
[3]; 4T1 reporter cells
  NF-kB (%)-4T1: 42.04%
G-CSF; EGF-mediated secretion
  G-CSF (%): 3.85%
IL-6
  IL-6 (%): −0.1232%
glycolysis
  Glycolysis: Inhibit
[4]; LLC reporter cells
  NF-kB (%)-LLC: 34.35%
CMTM4 [1]
  CMTM4: No difference

## Cc1c2ccncc2c(C)c2c1[nH]c1ccccc12 [Ellipticine]
p-Akt/p-mTOR
  p-Akt/p-mTOR: Decrease
CMTM4 [2]
  CMTM4 protein expression: decreased
IL-6
  IL-6 (%): −15.7288%
glycolysis
  Glycolysis: Inhibit
CMTM4 [1]
  CMTM4: No difference

## COc1ccc2c3c([nH]c2c1)[C@H](C=C(C)C)N1C(=O)[C@@H]2CCCN2C(=O)[C@@H]1C3 [Fumitremorgin C]
p-Akt/p-mTOR
  p-Akt/p-mTOR: Decrease
MHC II
  MHC II (%): 5071%
[3]
  NF-kB (%)-4T1: 49.73%
G-CSF
  G-CSF (%): 6.939%
IL-6
  IL-6 (%): 10.85%
glycolysis
  Glycolysis: Inhibit
[4]
  NF-kB (%)-LLC: 42.89%
CMTM4 [1]
  CMTM4: No difference

## Lobophorin F [C54H78N2O17, Lobophorin F]
p-Akt/p-mTOR
  p-Akt/p-mTOR: Decrease
MHC II
  MHC II (%): 360.5%
[3]; 4T1 reporter cells
  NF-kB (%)-4T1: 40.07%
G-CSF; EGF-mediated secretion
  G-CSF (%): 1.147%
IL-6
  IL-6 (%): −12.2043%
glycolysis
  Glycolysis: Inhibit
[4]; LLC reporter cells
  NF-kB (%)-LLC: 37.64%
CMTM4 [1]
  CMTM4: Decrease

## methyl-beta-cyclodextrin [methyl-beta-cyclodextrin (MβCD)]
EGFR; real-time PCR
  EGFR mRNA level: increased
EGFR; western blot
  EGFR protein level: increased
